Structures can show the parent of a compound that is named as a salt.
What was measured:
[1] = tested on: human leukemia MV4-11 cells; assay: Cell growth, CellTiter-Fluor Cell Viability Assay, MV4-11; type: cell-based; conditions: 48 h incubation, read-out: IC50 against human leukemia MV4-11 cells
From the text: (§1) The CellTiter-Fluor™ Cell Viability Assay measures the conserved and constitutive protease activity within live cells and therefore acts as a marker for cell viability.
(§2) CellTiter-Flor® (Promega) is as a nonlytic, single-reagent-addition fluorescence assay that measures the relative number of living cells in a culture population after experimental manipulation. The CellTiter-Fluor™ Cell Viability Assay measures the conserved and constitutive protease activity within live cells and therefore acts as a marker for cell viability.
(§3) Human leukemia MV4-11 cells, (obtained from the Deutsche Sammlung von Mikroorganismen und Zellkulturen, ACC 102) or NB4 cells, (obtained from the Deutsche Sammlung von Mikroorganismen und Zellkulturen) in exponential growth, were incubated for 48 h with different concentrations of the inhibitors. After 48 h a volume of CellTiter-Fluor® Reagent equal to one fifth of volume of cell culture medium was added. The content was mixed and incubates for at least 90 min at 37° C. degree to obtain a stable signal. The fluorescence was recorded using an excitation wavelength of 360 nm and an emission at 535 nm. The IC50 was calculated using GraphPad Software.

human leukemia NB4 cells = assay: Cell growth, CellTiter-Fluor Cell Viability Assay, NB4; type: cell-based; conditions: NB-4, 48 h incubation, read-out: IC50 against human leukemia NB4 cells
From the text: as §1, §2, §3

[2] = biological target: human recombinant KDM1A/CoREST protein (Homo sapiens, UniProt O60341); assay: Assay of enzyme inhibition of KDM1A (LSD1), TR-FRET
Method: The intensity of the light emission is proportional to the level of biotinylated reaction product. The complex of human recombinant KDM1A/CoREST protein was produced in E. coli as separate proteins and co-purified as previously described.
Demethylase reaction was started by the addition of 50 nM histone H3K4 monomethylated.
The resulting mixture was incubated in the dark for 1 h at RT.

Row | SMILES | IC50 [1] | IC50 (human leukemia NB4 cells) | IC50 [2]
1 | CN1CCCC(COc2cccc(NC(=O)c3cc4sccc4n3C)c2)C1 (stereo not drawn) [Example 19, 4-methyl-N-[3-[(1-methyl-3-piperidyl)methoxy]phenyl]thieno[3,2-b]pyrrole-5-carboxamide] | < 10 µM | < 20 µM | < 10 µM
2 | CN1CCN(Cc2ccc(OCc3ccccc3NC(=O)c3cc4sccc4n3C)cc2)CC1 [Example 20, 4-methyl-N-[2-[[4-[(4-methylpiperazin-1-yl)methyl]phenoxy]methyl]phenyl]thieno[3,2-b]pyrrole-5-carboxamide] | < 10 µM | < 20 µM | < 10 µM
3 | Cn1c(C(=O)Nc2cccc(OCc3ccncc3)c2)cc2sccc21 [Example 21, 4-methyl-N-[3-(4-pyridylmethoxy)phenyl]thieno[3,2-b]pyrrole-5-carboxamide] | < 10 µM | < 20 µM | < 10 µM
4 | CC(C)OCc1cccc(NC(=O)c2cc3sccc3n2C)c1COc1ccc(OC2CCNCC2)cc1 [Example 51, N-[3-(Isopropoxymethyl)-2-[[4-(4-piperidyloxy)phenoxy]methyl]phenyl]-4-methyl-thieno[3,2-b]pyrrole-5-carboxamide] | < 10 µM | < 20 µM | < 10 µM
5 | CCOCc1cccc(NC(=O)c2cc3sccc3n2C)c1COc1ccc(OC[C@@H]2CCNC2)cc1 [Example 52, N-[3-(Ethoxymethyl)-2-[[4-[[(3R)-pyrrolidin-3-yl]methoxy]phenoxy]methyl]phenyl]-4-methyl-thieno[3,2-b]pyrrole-5-carboxamide hydrochloride] | < 10 µM | < 20 µM | < 10 µM
6 | Cn1c(C(=O)Nc2cccc(CN3CCOCC3)c2COc2ccc(OC3CCNCC3)cc2)cc2sccc21 [Example 54, 4-Methyl-N-[3-(morpholinomethyl)-2-[[4-(4-piperidyloxy)phenoxy]methyl]phenyl]thieno[3,2-b]pyrrole-5-carboxamide dihydrochloride] | < 10 µM | < 20 µM | < 10 µM
7 | Cn1c(C(=O)Nc2ccccc2CCc2ccc(OC3CCNCC3)cc2)cc2sccc21 [Example 61, 4-Methyl-N-[2-[2-[4-(4-piperidyloxy)phenyl]ethyl]phenyl]thieno[3,2-b]pyrrole-5-carboxamide hydrochloride] | < 10 µM | < 20 µM | < 10 µM
8 | Cn1c(C(=O)Nc2cccc(CCc3ccc(OC4CCNCC4)cc3)c2)cc2sccc21 [Example 62, 4-Methyl-N-[3-[2-[4-(4-piperidyloxy)phenyl]ethyl]phenyl]thieno[3,2-b]pyrrole-5-carboxamide hydrochloride] | < 10 µM | < 20 µM | < 10 µM
9 | Cn1c(C(=O)Nc2ccccc2CNc2ccc(OC3CCNCC3)cc2)cc2sccc21 [Example 63, 4-Methyl-N-[2-[[4-(4-piperidyloxy)anilino]methyl]phenyl]thieno[3,2-b]pyrrole-5-carboxamide dihydrochloride] | < 10 µM | < 20 µM | < 10 µM

Next, values leading:

Row | IC50 [1] | IC50 (human leukemia NB4 cells) | IC50 [2] | SMILES
10 | < 10 µM | < 20 µM | < 10 µM | COCc1cccc(NC(=O)c2cc3sccc3n2C)c1COc1ccc(OC[C@H]2CCNC2)cc1 [Example 49, N-[3-(Methoxymethyl)-2-[[4-[[(3S)-pyrrolidin-3-yl]methoxy]phenoxy]methyl]phenyl]-4-methyl-thieno[3,2-b]pyrrole-5-carboxamide hydrochloride]
11 | < 10 µM | < 20 µM | < 10 µM | CCOCc1cccc(NC(=O)c2cc3sccc3n2C)c1COc1ccc(OC2CCNCC2)cc1 [Example 50, N-[3-(Ethoxymethyl)-2-[[4-(4-piperidyloxy)phenoxy]methyl]phenyl]-4-methyl-thieno[3,2-b]pyrrole-5-carboxamide hydrochloride]
12 | < 10 µM | < 20 µM | < 10 µM | CCn1c(C(=O)Nc2cccc(COC)c2COc2ccc(OC[C@@H]3CCNC3)cc2)cc2sccc21 [Example 53, 4-Ethyl-N-[3-(methoxymethyl)-2-[[4-[[(3R)-pyrrolidin-3-yl]methoxy]phenoxy]methyl]phenyl]thieno[3,2-b]pyrrole-5-carboxamide; trifluoroacetic acid]
13 | < 10 µM | < 20 µM | < 10 µM | Cc1ccc(COc2ccc(OCC3CCNC3)cc2)c(NC(=O)c2cc3sccc3n2C)c1 (stereo not drawn) [Example 55, 4-Methyl-N-[5-methyl-2-[[4-(pyrrolidin-3-ylmethoxy)phenoxy]methyl]phenyl]thieno[3,2-b]pyrrole-5-carboxamide]

Source: US10183952B2, “Thienopyrroles as histone demethylase inhibitors” (ISTITUTO EUROPEO DI ONCOLOGIA S.R.L., priority 2014, dated 2019)
